Consider 5 molecules from patent publication US8324212B2, “Compounds for the treatment of hepatitis C” (Bristol-Myers Squibb Company, priority 2010, dated 2012).

One may read the IC50 as the point on the concentration scale where inhibition reaches its midpoint. A higher IC50 goes with a need for much substance. The term EC50 denotes the concentration at which the effect is half-maximal.

Data set [1] deals with T1, HCV NS5B RdRp genotype 1b (Hepatitis C virus genotype 1b, UniProt Q9WMX2).
T1 construct: The cDNA encoding the NS5B protein of HCV, genotype 1b; made in house; host or cells: E. coli BL21 (DE3)
Nature of the data set: HCV NS5B RdRp enzyme assay. In kind it is biochemical. As to conditions: standard or modified assay not stated. The procedure: HCV NS5B RdRp cloning, expression, and purification. The cDNA encoding the NS5B protein of HCV, genotype 1b, was cloned into the pET21a expression vector. The protein was expressed with an 18 amino acid C-terminal truncation to enhance the solubility. The E. coli competent cell line BL21 (DE3) was used for expression of the protein. Cultures were grown at 37° C. for ˜4 hours until the cultures reached an optical density of 2.0 at 600 nm. The cultures were cooled to 20° C. and induced with 1 mM IPTG. Fresh ampicillin was added to a final concentration of 50 μg/ml and the cells were grown overnight at 20° C.
Cell pellets (3L) were lysed for purification to yield 15-24 mgs of purified NS5B. The lysis buffer consisted of 20 mM Tris-HCl, pH 7.4, 500 mM NaCl, 0.5% triton X-100, 1 mM DTT, 1 mM EDTA, 20% glycerol, 0.5 mg/ml lysozyme, 10 mM MgCl2, 15 ug/ml deoxyribonuclease I, and Complete TM protease inhibitor tablets (Roche). After addition of the lysis buffer, frozen cell pellets were resuspended using a tissue homogenizer. To reduce the viscosity of the sample, aliquots of the lysate were sonicated on ice using a microtip attached to a Branson sonicator. The sonicated lysate was centrifuged at 100,000×g for 1 hr at 4° C. and filtered through a 0.2 μm filter unit (Corning).
The protein was purified using three sequential chromatography steps: Heparin sepharose CL-6B, polyU sepharose 4B, and Hitrap SP sepharose (Pharmacia). The chromatography buffers were identical to the lysis buffer but contained no lysozyme, deoxyribonuclease I, MgCl2 or protease inhibitor and the NaCl concentration of the buffer was adjusted according to the requirements for charging the protein onto the column. Each column was eluted with a NaCl gradient which varied in length from 5-50 column volumes depending on the column type. After the final chromatography step, the resulting purity of the enzyme is >90% based on SDS-PAGE analysis. The enzyme was aliquoted and stored at −80° C.
Standard HCV NS5B RdRp enzyme assay. HCV RdRp genotype 1b assays were run in a final volume of 60 μl in 96 well plates (Costar 3912). The assay buffer is composed of 20 mM Hepes, pH 7.5, 2.5 mM KCl, 2.5 mM MgCl2, 1 mM DTT, 1.6 U RNAse inhibitor (Promega N2515), 0.1 mg/ml BSA (Promega R3961), and 2% glycerol. All compounds were serially diluted (3-fold) in DMSO and diluted further in water such that the final concentration of DMSO in the assay was 2%. HCV RdRp genotype 1b enzyme was used at a final concentration of 28 nM. A polyA template was used at 6 nM, and a biotinylated oligo-dT12 primer was used at 180 nM final concentration. […] Plates were read on a Packard Top Count NXT after >1 hr incubation at room temperature. […]
IC50 values for compounds were determined using seven different [I]. […]

The subject of the next data set is HCV replicon. Nature of the data set: HCV replicon assay (FRET / luciferase reporter). Particulars: Hepatitis C virus; HCV replicon cells (HUH-7). In kind it is cell-based. The text has this: FRET Assay Preparation. To perform the HCV FRET screening assay, 96-well cell culture plates were used. The FRET peptide (Anaspec, Inc.) (Taliani et al., Anal. Biochem. 1996, 240, 60-67) contains a fluorescence donor, EDANS, near one end of the peptide and an acceptor, DABCYL, near the other end. The fluorescence of the peptide is quenched by […] resonance energy transfer (RET) between the donor and the acceptor, but as the NS3 protease cleaves the peptide the products are released from RET quenching and the fluorescence of the donor becomes apparent. The assay reagent was made as follows: 5× cell Luciferase cell culture lysis reagent from Promega (#E153A) diluted to 1× with dH2O, NaCl added to 150 mM final, the FRET peptide diluted to 20 μM final from a 2 mM stock. […]
Assays. […] After reading in a Cytoflour 4000 instrument (PE Biosystems), plates were rinsed with PBS and then used for FRET assay by the addition of 30 ul of the FRET peptide assay reagent described above (FRET Assay Preparation) per well. The plate was then placed into the Cytoflour 4000 instrument which had been set to 340 excite/490 emission, automatic mode for 20 cycles and the plate read in a kinetic mode. Typically, the signal to noise using an endpoint analysis after the reads was at least three-fold. Alternatively, after Alamar blue reading, plates were rinsed with PBS, 50 ul of DMEM (high glucose) without phenol red was added and plates were then used for luciferase assay using the Promega Dual-Glo Luciferase Assay System.
Compound analysis was determined by quantification of the relative HCV replicon inhibition and the relative cytotoxicity values. To calculate cytoxicity values, the average Alamar Blue fluorescence signals from the control wells were set as 100% non-toxic. […]
Background: In antiviral work, replicon cells carry a viral genome segment that copies itself.

The next data set has as its system HCV. As to conditions: cited from earlier work.

T1 sequence (Q9WMX2 2420-2992): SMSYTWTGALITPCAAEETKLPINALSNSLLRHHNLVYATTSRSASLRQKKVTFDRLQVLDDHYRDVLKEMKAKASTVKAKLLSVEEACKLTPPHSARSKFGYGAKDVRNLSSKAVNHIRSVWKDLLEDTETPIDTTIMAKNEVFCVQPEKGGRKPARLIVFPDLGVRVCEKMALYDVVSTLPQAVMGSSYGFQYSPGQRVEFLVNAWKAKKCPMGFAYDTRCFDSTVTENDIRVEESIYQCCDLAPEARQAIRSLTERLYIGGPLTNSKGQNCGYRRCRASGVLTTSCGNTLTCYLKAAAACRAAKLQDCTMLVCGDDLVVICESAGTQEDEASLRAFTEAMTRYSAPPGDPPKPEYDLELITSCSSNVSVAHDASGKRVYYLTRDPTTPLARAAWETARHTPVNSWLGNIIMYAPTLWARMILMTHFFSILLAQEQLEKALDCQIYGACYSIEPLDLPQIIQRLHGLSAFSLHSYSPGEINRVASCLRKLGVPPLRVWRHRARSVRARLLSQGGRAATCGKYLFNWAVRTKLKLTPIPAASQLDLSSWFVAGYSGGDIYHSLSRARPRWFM

Take `CNC(=O)c1c(-c2ccc(F)cc2)nn2nccc(-c3cc(C(=O)NC4(c5ccccc5)CC4)ccc3C)c12` [Example 2, 2-(4-fluorophenyl)-N-methyl-4-(2-methyl-5-(1-phenylcyclopropylcarbamoyl)phenyl)pyrazolo[1,5-b]pyridazine-3-carboxamide]: the midpoint of inhibition in data set [1], the IC50, lay at 3060 nM.
With `CNC(=O)c1c(-c2ccc(F)cc2)nn2ncc(-c3cc(C(=O)NC4(c5ccccc5)CC4)c(OC)cc3C)cc12` [Example 3, 2-(4-fluorophenyl)-5-(4-methoxy-2-methyl-5-(1-phenylcyclopropylcarbamoyl)phenyl)-N-methylpyrazolo[1,5-b]pyridazine-3-carboxamide], the IC50 in data set [1] stood at 11 nM. Also, the EC50 in the data set on HCV replicon stood at 2 nM.
The corresponding values for `CNC(=O)c1c(-c2ccc(F)cc2)nn2ncc(-c3cc(C(=O)NC4(c5ccccc5)CC4)ccc3C)cc12` [Example 1, 2-(4-fluorophenyl)-N-methyl-5-(2-methyl-5-(1-phenylcyclopropylcarbamoyl)phenyl)pyrazolo[1,5-b]pyridazine-3-carboxamide] are below 17 nM and 5 nM.
For the molecule `CNC(=O)c1c(-c2ccc(F)cc2)oc2cc(N(CCO)S(C)(=O)=O)c(C3CC3)cc12` [HCV-796], the “toxicity during extended dosing” value in the data set with HCV (patients, extended dosing of the combination regimens) is recorded as “hepatic toxicity observed”. For the same molecule, the “HCV RNA levels in patients” value with HCV (single agent or combined with interferon and ribavirin) is given as “showed an ability to reduce HCV RNA levels in patients”.
On to `CNC(=O)c1c(-c2ccc(F)cc2)nn2ncc(-c3cc(C(=O)NC4(c5ncccn5)CC4)c(OC)cc3C)cc12` [Example 4, 2-(4-fluorophenyl)-5-(4-methoxy-2-methyl-5-(1-(pyrimidin-2-yl)cyclopropylcarbamoyl)phenyl)-N-methylpyrazolo[1,5-b]pyridazine-3-carboxamide], for which half-maximal inhibition in data set [1] (IC50) was put at 14 nM. This molecule also returned an EC50 in the data set with HCV replicon of 12 nM.
